Source: US20200291079A1, “ENGINEERING STRUCTURALLY DEFINED NON-SACCHARIDE GLYCOSAMINOGLYCAN MIMETICS VIA A POLYPROLINE SCAFFOLD” (AGENCY FOR SCIENCE, TECHNOLOGY AND RESEARCH, priority 2015, published 2020)
“Also recorded” adds a separate entry of the source. Square brackets hold non-standard residues; d marks the D form. Primed or numbered codes have the meaning given here. Ends that are not written are not given here. * marks the point of attachment. PE = 4-azidoproline (Pz) joined by click reaction (1,2,3-triazole) to NS; Biotin = O=C1N[C@H]2[C@H](CS[C@H]2CCCCC(=O)*)N1; PEG12′ = not defined here

Key:
GDNF [1] = target: GDNF (Homo sapiens, UniProt P39905)
GDNF (Homo sapiens, UniProt P39905), sequence (P39905 76-211, species assumed): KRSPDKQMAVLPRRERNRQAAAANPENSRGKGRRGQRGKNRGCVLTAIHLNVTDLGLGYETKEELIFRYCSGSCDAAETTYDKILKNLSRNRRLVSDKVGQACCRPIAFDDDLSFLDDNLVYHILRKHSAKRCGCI
Experimental: (§1) SPR measurements were performed using a Biacore T100 system (GE Healthcare). The CM5 sensor chip was primed with HBS-EP+ buffer (10 mM HEPES pH 7.4, 150 mM NaCl, 3.4 mM EDTA, 0.005% P20, GE Healthcare) and was activated using the standard amine-coupling protocol (1:1 mixture of 0.4 M EDC and 0.1M NHS). 0.008 mg/ml of streptavidin solution in 10 mM sodium acetate buffer (Acetate 5.0, GE Healthcare) was conjugated and remaining activated groups were quenched with 1 M ethanolamine solution (pH 8.5). The final amount of streptavidin covalently immobilized on the surface was typically 700 RU. Flow cell 1 (or 3) was used as a reference to subtract nonspecific binding, drift, and the bulk refractive index, while flow cell 2 (or 4) was further immobilized with GAG mimetic agents or natural polysaccharides. […] Immobilized amount is normalized by a molecular weight. For a given affinity measurement, varying amount of protein solutions were successively injected into the flow cells for 240 seconds of contact time and 800 seconds of dissociation time using a flow rate of 50 μL/min at 25° C. Flow cell was regenerated using 2.5 M MgCl2 at 30 μL/min. Association (ka) and dissociation (kd) rate constants were calculated with a 1:1 binding model using Biacore evaluation software, and KD values were calculated from the ratio of kd to ka. Kinetic parameters were obtained by fitting curves to a 1:1 Langmuir model with baseline correction.
(§2) With the non-saccharide glycosaminoglycan mimetics in hand, SPR was employed to facilitate quantitative, real-time kinetic analysis of non-saccharide glycosaminoglycan mimetic binding to GDNF and GFRα1.

GFRα1 [2] = target: GFRα1 (Homo sapiens, UniProt P56159)
GFRα1 (Homo sapiens, UniProt P56159), sequence (P56159 25-429, species assumed): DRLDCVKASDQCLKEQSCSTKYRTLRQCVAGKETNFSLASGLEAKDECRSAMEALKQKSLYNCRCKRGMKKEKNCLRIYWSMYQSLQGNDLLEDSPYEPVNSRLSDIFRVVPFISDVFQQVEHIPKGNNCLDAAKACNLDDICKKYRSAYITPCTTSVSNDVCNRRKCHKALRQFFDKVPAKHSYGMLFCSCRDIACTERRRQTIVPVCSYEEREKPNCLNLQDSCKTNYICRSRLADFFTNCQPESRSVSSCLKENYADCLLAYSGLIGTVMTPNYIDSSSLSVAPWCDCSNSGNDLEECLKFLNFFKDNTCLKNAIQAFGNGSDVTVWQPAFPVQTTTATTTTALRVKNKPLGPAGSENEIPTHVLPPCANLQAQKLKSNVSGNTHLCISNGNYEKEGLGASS
Experimental: as §1, §2

P-selectin [3] = target: T1, P-selectin (Homo sapiens, UniProt P16109); experiment: SPR binding to P-selectin; conditions: distributed vs single facial conformation
T1 sequence (P16109 42-830): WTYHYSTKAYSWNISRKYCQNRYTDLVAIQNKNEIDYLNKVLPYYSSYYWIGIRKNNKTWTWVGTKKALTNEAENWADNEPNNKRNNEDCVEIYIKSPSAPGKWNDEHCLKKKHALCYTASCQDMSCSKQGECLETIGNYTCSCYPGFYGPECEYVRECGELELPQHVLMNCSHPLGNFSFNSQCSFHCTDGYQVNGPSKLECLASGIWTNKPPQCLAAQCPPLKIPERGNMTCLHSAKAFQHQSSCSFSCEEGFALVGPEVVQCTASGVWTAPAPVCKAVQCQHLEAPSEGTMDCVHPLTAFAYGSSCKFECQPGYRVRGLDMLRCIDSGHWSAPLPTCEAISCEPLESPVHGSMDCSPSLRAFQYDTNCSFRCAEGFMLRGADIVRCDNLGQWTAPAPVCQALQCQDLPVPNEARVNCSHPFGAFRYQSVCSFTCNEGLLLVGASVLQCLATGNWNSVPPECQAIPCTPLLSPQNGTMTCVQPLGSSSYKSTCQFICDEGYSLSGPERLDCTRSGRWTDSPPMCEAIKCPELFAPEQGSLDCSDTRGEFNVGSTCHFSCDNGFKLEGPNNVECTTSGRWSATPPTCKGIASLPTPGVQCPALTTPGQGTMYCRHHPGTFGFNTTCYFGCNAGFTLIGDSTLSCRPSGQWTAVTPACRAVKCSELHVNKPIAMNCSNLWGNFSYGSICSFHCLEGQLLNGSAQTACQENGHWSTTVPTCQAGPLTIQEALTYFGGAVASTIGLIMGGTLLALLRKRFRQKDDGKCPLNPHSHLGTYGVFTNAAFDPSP
Experimental: as §1, with “Kinetic parameters were obtained by fitting curves to a 1:1 Langmuir model with baseline correction.” left out

Factor Xa = experiment: BIOPHEN Heparin Anti-Xa assay in the presence of anti-thrombin; format: biochemical; conditions: at concentrations as high as 300 ug/ml, anti-thrombin present
Source text: (§3) One common drawback hampering the clinical application of negatively charged glycomimetics is the potentially hazardous tendency to activate anti-thrombin, which in turn severely impairs the ability of blood coagulation factors (e.g. Factor Xa and IIa) in the final common pathway to orchestrate blood coagulation. To verify the safety and clinical potential of the engineered non-saccharide glycomimetics of tunable spatial conformation, the effect of (PE)12-NS and heparin on the activity of blood coagulation factors, Factor Xa and IIa in the presence of anti-thrombin, was assessed. This assessment was performed using BIOPHEN Heparin Anti-Xa and Anti-IIa assays (Aniara) where the inhibitory effect of anti-thrombin on Factor Xa and IIa was determined by the ability of the factors to catalyze the hydrolysis of factor-specific chromogenic substrates. […] The use of spatial conformation to present key chemical motifs toward selectins is therefore specific and independent of other proteins that could lead to undesirable consequences if concomitant enhanced binding were to be seen.

Factor IIa = experiment: BIOPHEN Heparin Anti-IIa assay in the presence of anti-thrombin; format: biochemical; conditions: at concentrations as high as 300 ug/ml, anti-thrombin present
Source text: as §3

[4] = tested on: B16F10 murine melanoma cells bound to P-selectin-coated surfaces; experiment: Adhesion of calcein-labeled tumor cells to immobilized P-selectin; format: cell-based; conditions: B16F10 cells on P-selectin-coated surfaces
Source text: As such, it was examined if the strong binding affinity of (PE)12-NS toward P-selectin could translate into inhibition of P-selectin-mediated adhesion of tumor cells. To do so, recombinant P-selectin chimera protein with a Fc region was immobilized on Protein A-coated surfaces. The adhesion of calcein-labeled B16F10 murine melanoma cells to these surfaces in the presence of heparin or (PE)12-NS was then visualized (FIG. 16A) and quantified by fluorescence microplate reader (FIG. 16B).

PC12 cells = experiment: Neurite outgrowth assay (GDNF-mediated neuritogenesis); conditions: 72 h; for effect on neuritogenesis: added to culture media, 20 μM, untreated cells
Experimental: PC12 cells were maintained in T75 tissue culture flasks in RPMI 1640 medium (ATCC® 30-2001) supplemented with 10% heat-inactivated horse serum (HI-HS, Gibco 26050-088), 5% fetal bovine serum (FBS, Gibco 26170-043) and 1% penicillin/streptomycin (Gibco 15140-122). Stock cultures from liquid nitrogen were grown at 37° C. with 5% CO2 in a humidified chamber for a minimum of 72 hr before experiments. Cells were seeded on 13 mm round glass coverslips (Paul Marienfeld 0111530). The coverslips were pretreated with 65% nitric acid for three days, washed with distilled water, 70% ethanol and 100% ethanol thrice each for 30 minutes with gentle rocking and then dried in a cell culture hood overnight under UV. For cell attachment, the treated coverslips were coated with laminin (25 μg/mL in PBS; Sigma L2020) at 37° C. for 1 hr, washed thrice with PBS, and then placed at the bottom of a 24-well plate for cell seeding. For all experiments, cells were cultured in RPMI 1640 differentiation media containing 1% HI-HS.
PC12 cells were first harvested and incubated in differentiation media or differentiation media supplemented with 30 μM of DPPE-(PE)12-NS for 2 h. After incubation, the cells were centrifuged and rinsed twice with fresh differentiation medium and then seeded onto laminin-coated coverslips at a density of 100 cells/mm^2. After allowing the cells to attach for 1 hr at 37° C., the medium was replaced with fresh differentiation medium supplemented with 200 ng/mL GDNF and 1 μg/mL GFRα1. As additional controls, (PE)12-NS or NS were further added to the supplemented medium to a final concentration of 20 μM for untreated cells. After 72 h, the cells were fixed with 4% paraformaldehyde solution (Tokyo Chemical Industry 30525-89-4 in PBS) for 15 minutes at room temperature and then rinsed with PBS. Bright-field images were taken using an Olympus IX71 Inverted Microscope at 20× magnification under phase contrast. For each condition, 400-500 randomly selected single cells were counted. The percentage of neurite-bearing cells was determined by counting the number of cells with neurites longer than the cell body. Experiments were repeated three times and done in duplicate each time.

[5] = target: recombinant P-selectin chimera protein with a Fc region; experiment: cell-based or functional assay
P-selectin [6] = target: T2, P-selectin; experiment: SPR (Biacore T100), biotinylated mimetic on streptavidin chip, selectin injected
T2 chain: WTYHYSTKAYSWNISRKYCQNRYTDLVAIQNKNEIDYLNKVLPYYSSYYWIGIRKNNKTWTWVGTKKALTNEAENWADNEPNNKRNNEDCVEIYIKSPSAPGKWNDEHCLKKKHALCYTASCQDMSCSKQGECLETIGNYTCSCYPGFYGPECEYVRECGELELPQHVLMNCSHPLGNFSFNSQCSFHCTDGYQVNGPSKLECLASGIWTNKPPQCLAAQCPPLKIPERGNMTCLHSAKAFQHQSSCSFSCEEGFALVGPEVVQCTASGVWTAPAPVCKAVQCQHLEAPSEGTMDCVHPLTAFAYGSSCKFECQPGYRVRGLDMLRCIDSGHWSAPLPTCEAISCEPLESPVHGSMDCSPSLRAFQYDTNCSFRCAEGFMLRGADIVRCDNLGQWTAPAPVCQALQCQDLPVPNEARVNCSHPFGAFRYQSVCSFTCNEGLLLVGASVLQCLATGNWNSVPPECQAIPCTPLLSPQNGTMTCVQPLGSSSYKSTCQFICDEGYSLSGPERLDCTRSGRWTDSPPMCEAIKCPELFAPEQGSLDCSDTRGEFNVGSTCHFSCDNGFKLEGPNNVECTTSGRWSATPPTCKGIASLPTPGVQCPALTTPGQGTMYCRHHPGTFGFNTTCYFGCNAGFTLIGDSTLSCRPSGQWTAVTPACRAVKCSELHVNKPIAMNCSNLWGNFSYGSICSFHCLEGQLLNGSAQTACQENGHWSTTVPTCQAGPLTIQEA

GFRα1 [7] = experiment: SPR (Biacore T100), biotinylated mimetic on streptavidin CM5 chip, protein injected, 1:1 model
GDNF [8] = target: T3, GDNF; experiment: as above
T3 chain: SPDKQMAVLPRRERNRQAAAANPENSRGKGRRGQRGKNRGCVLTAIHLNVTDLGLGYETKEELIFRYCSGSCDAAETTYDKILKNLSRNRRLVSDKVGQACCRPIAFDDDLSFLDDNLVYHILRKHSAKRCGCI

[9] = GDNF, SPR, 1:1 binding model, 25° C.
[10] = SPR sensorgrams, 0.2-1.0 nM protein
[11] = GFRα1, SPR, 1:1 binding model, 25° C.

COC(=O)[C@@H]1C[C@@H](n2cc(CC(COS(=O)(=O)O)OS(=O)(=O)O)nn2)CN1C(=O)[C@@H]1C[C@@H](n2cc(CC(COS(=O)(=O)O)OS(=O)(=O)O)nn2)CN1C(=O)[C@@H]1C[C@@H](n2cc(CC(COS(=O)(=O)O)OS(=O)(=O)O)nn2)CN1C(=O)[C@@H]1C[C@@H](n2cc(CC(COS(=O)(=O)O)OS(=O)(=O)O)nn2)CN1C(=O)[C@@H]1C[C@@H](n2cc(CC(COS(=O)(=O)O)OS(=O)(=O)O)nn2)CN1C(=O)[C@@H]1C[C@@H](n2cc(CC(COS(=O)(=O)O)OS(=O)(=O)O)nn2)CN1C(=O)[C@@H]1C[C@@H](n2cc(CC(COS(=O)(=O)O)OS(=O)(=O)O)nn2)CN1C(=O)[C@@H]1C[C@@H](n2cc(CC(COS(=O)(=O)O)OS(=O)(=O)O)nn2)CN1C(=O)[C@@H]1C[C@@H](n2cc(CC(COS(=O)(=O)O)OS(=O)(=O)O)nn2)CN1C(=O)[C@@H]1C[C@@H](n2cc(CC(COS(=O)(=O)O)OS(=O)(=O)O)nn2)CN1C(=O)[C@@H]1C[C@@H](n2cc(CC(COS(=O)(=O)O)OS(=O)(=O)O)nn2)CN1C(=O)[C@@H]1C[C@@H](n2cc(CC(COS(=O)(=O)O)OS(=O)(=O)O)nn2)CN1C(=O)CCOCCOCCOCCOCCOCCOCCOCCOCCOCCOCCOCCOCCNC(=O)CCCC[C@@H]1SC[C@@H]2NC(=O)N[C@@H]21 (stereo partly drawn) [(PE)12-NS]
kd (GDNF [1]; [9]): 2.12 (± 0.07) × 10^−3 S^−1 | kα (GDNF [1]; [9]): 6.42 (± 0.28) × 10^5 M^−1S^−1 | binding affinity to GDNF (comparison in words) (GDNF [1]; [10]): far higher binding affinity | kd (GFRα1 [2]; [11]): 4.9 (± 1.7) × 10^−2 S^−1 | kα (GFRα1 [2]; [11]): 4.26 (± 0.90) × 10^5 M^−1S^−1 | binding affinity to GFRα1 (comparison in words) (GFRα1 [2]; [10]): far higher binding affinity | binding affinity to P-selectin (comparison in words) (P-selectin [3]): stronger binding affinity | activity of Factor Xa (Factor Xa): remained unaffected | activity of Factor IIa (Factor IIa): remained unaffected | concentration from which near-complete inhibition of adhesion is achieved [4]: ≥ 0.6 µg/mL | effect on neuritogenesis (PC12 cells; GDNF and GFRα1): Complete inhibition | effect on neuritogenesis (PC12 cells; GDNF and GFRα1, listed as biotin-(PE)12-NS): completely inhibited neuritogenesis

DPPE-(PE)12-NS (PPPPPPPPPPPP)
percentage of neurite-bearing cells (PC12 cells; cells pre-incubated with 30 μM for 2 h, 200 ng/mL GDNF and 1 μg/mL GFRα1, control 16%): 45% | neurite length (PC12 cells; cells pre-incubated with 30 μM for 2 h, GDNF and GFRα1): marked increase

pent-4-yne-1,2-diyl bis(sulfate) [NS]
effect on neuritogenesis (PC12 cells; GDNF and GFRα1): No significant effect; also recorded: no discernable effect

B1: Biotin-(PE)12-NS (peptide)
peptide: {Biotin-PEG12′}-[PE][PE][PE][PE][PE][PE][PE][PE][PE][PE][PE][PE]
modifications: also: CO2CH3 methyl ester seen in NMR
notes: Non-saccharide glycosaminoglycan mimetic on a polyproline type II helix, with NS on all three faces; The biotinylated form was immobilised on streptavidin for SPR; also called distributed design; distributed conformation
IC50 of inhibition of adhesion of calcein-labeled B16F10 murine melanoma cells to immobilized P-selectin [5]: 0.18 µg/mL | near-complete inhibition of adhesion of B16F10 cells to immobilized P-selectin [5]: > 0.6 µg/mL | Kd (P-selectin [6]): 6 nM | Kd (GFRα1 [7]): 116 nM | koff (GFRα1 [7]): 0.049 s⁻¹ | kon (GFRα1 [7]): 426000 M⁻¹ s⁻¹ | Kd (GDNF [8]): 3.3 nM | koff (GDNF [8]): 0.00212 s⁻¹ | kon (GDNF [8]): 642000 M⁻¹ s⁻¹
